Several values for one entry are separate records, joined by “and”; a condition that tells them apart may be missing. Equal values may be shown once. Entries after “also recorded” stand apart in the source; their conditions may differ. Marks after values point to notes of the source that are not given here. Square brackets hold non-standard residues; d marks the D form. Ends that are not written are not given here. Peptide text beside a SMILES is read from it.
Legend:
[1] = Pharmacokinetics study in rats, CSF; format: in vivo; parameters: CSF concentration, Mean IV / CSF concentration, Mean SC: unit not given here; conditions: rat; for CSF concentration, Mean IV: 10 mg/kg IV; for CSF concentration, Mean SC: 10 mg/kg SC
Protocol: (§1) An in-vivo study was carried out in rats to determine the pharmacokinetics (PK) of peptides P8, 8M1D and 8M2D in plasma and CSF. Each peptide was assessed through two dosage routes, intravenous (IV) and subcutaneous (SC). Three rats were assigned to each dose group with each peptide. Total of twelve rats per peptide were used.
CSF collection was performed by first anesthetizing animals at specified time points (see Table 5) with a mixture of 80 mg/kg ketamine and 8 mg/kg xylazine. The depth of anesthesia was monitored by toe pinches. CSF was collected via the cisterna magna (˜0.05 mL), and it was split into equal aliquots, frozen, and stored at −60 to −80° C.

[2] = Delivery to brain in transgenic mice (brain concentrations); format: in vivo; parameters: Brain Concentration / Brain Concentration, Mean: unit not given here; conditions: for delivery to the APPTg mouse brain (in words): SC administration
Protocol: Critical to the development of any therapeutic for diseases like AD is the requirement that it can be delivered to the brain. Delivery to brain and efficacy of P8 and 8M2D in reducing Aß was analyzed in the transgenic mice described in Section 6.3 above. […]

[3] = Pharmacokinetics study in rats, plasma; format: in vivo; conditions: rat; for plasma concentration: individual rats
Protocol: as §1
(§2) Blood was collected through jugular vein cannulas, and the samples were collected into tubes with K2EDTA. After centrifuging at a temperature of 2 to 8° C. at 4,000×g for 5 minutes, the resulting plasma was split into equal aliquots, frozen, and stored at −60 to −80° C. One aliquot was for PK analysis and the other was for Aβ analysis (see Example 4).

Aβ = test: Reduction of Aβ in retinal cells differentiated from iPSC derived from Alzheimer's disease patients; format: cell-based
Description: The accumulation of Aβ in the retina was studied in this example. Retinal cells were differentiated from induced pluripotent stem (iPSC) cells derived from Alzheimer's disease patients.

Aβ40 = test: Efficacy in reducing Aβ40 in rat plasma (ELISA); format: in vivo; conditions: for reduction in Aβ40 / Percent Decrease in Aβ 40 in Rat Plasma: 10 mg/kg SC; for Percent Decrease in Aβ 40 in Rat Plasma: mean of 3 rats, negative = decrease
Protocol: as §2
Rats (n=3 per peptide) were administered with P8, 8M1D, or 8M2D (10 mg/kg) subcutaneously, and plasma were collected at 0, 6, 12, and 24 h after dosing and Aβ40 analysis was carried out by ELISA (Invitrogen).

Aß = test: Efficacy in reducing Aß in APP transgenic mice (analysis in CSF and brain); format: in vivo; conditions: Tg mice over-expressing Aß
Protocol: Critical to the development of any therapeutic for diseases like AD is the requirement that it can be delivered to the brain. Delivery to brain and efficacy of P8 and 8M2D in reducing Aß was analyzed in the transgenic mice described in Section 6.3 above.
The maximum efficacious dose of 8M2D in Tg mice over-expressing Aß is at just over 50 mg/kg. This gives a 65% reduction in Aß 42. […] Experiments are performed to establish the minimum efficacious dose in Tg mice.

[4] = 10 mg/kg IV, 0.5 hr, 10 mg/kg, in ng/mL (unit assumed)
[5] = 10 mg/kg IV, 1 hr, 10 mg/kg, in ng/mL (unit assumed)
[6] = 10 mg/kg IV, 2 hr, 10 mg/kg, in ng/mL (unit assumed)
[7] = 10 mg/kg SC, 0.5 hr, 10 mg/kg, in ng/mL (unit assumed)
[8] = 10 mg/kg SC, 1 hr, 10 mg/kg, in ng/mL (unit assumed)
[9] = 10 mg/kg SC, 2 hr, 10 mg/kg, in ng/mL (unit assumed)

CC(=O)N[C@H](CC(=O)O)C(=O)N[C@@H](CCC(=O)O)C(=O)N[C@@H](CCC(=O)O)C(=O)N[C@@H](CCC(=O)O)C(=O)N[C@@H](CC(=O)O)C(=O)N[C@@H](CCC(=O)O)C(=O)N[C@@H](CCC(=O)O)C(=O)N[C@@H](CC(C)C)C(N)=O [8M2D, Ac-dEEEDEEL-NH2] (Ac-[dD]EEEDEEL-NH2)
exposure in CSF compared with P8 (in words) ([1]; 10 mg/kg IV and SC, at Cmax and most subsequent time points, 10 mg/kg): better exposures than P8; also recorded: higher exposure than P8 | CSF concentration, Mean IV ([1]; 0 hr): 0 | CSF concentration, Mean IV ([1]; 0.5 hr): 104 | CSF concentration, Mean IV ([1]; 1 hr): 55.6 | CSF concentration, Mean IV ([1]; 2 hr): 68 | CSF concentration, Mean IV ([1]; 4 hr): 11.5 | CSF concentration, Mean IV ([1]; 8 hr): 1.75 | CSF concentration, Mean IV ([1]; 12 hr): 0.378 | CSF concentration, Mean IV ([1]; 24 hr): 1.2 | CSF concentration, Mean SC ([1]; 0 hr): 0 | CSF concentration, Mean SC ([1]; 0.5 hr): 59 | CSF concentration, Mean SC ([1]; 1 hr): 53.4 | CSF concentration, Mean SC ([1]; 2 hr): 172 | CSF concentration, Mean SC ([1]; 4 hr): 13.3 | CSF concentration, Mean SC ([1]; 8 hr): 15.3 | CSF concentration, Mean SC ([1]; 12 hr): 0.113 | CSF concentration, Mean SC ([1]; 24 hr): 0 | delivery to the APPTg mouse brain (in words) [2]: in sufficient amounts to reduce Aß in the brain | Brain Concentration ([2]; transgenic mice, SC, dose 10 mg/kg, individual animals): BQL | Brain Concentration, Mean ([2]; transgenic mice, SC, dose 50 mg/kg, N 2): 9.06 | Brain Concentration, Mean ([2]; transgenic mice, SC, dose 250 mg/kg, N 5): 15.4 | time after dosing at which detectable in plasma ([3]; 10 mg/kg IV and SC): ≥ 6 h | exposure in plasma compared with P8 (in words) ([3]; 10 mg/kg IV and SC, at Cmax and most subsequent time points): better exposures than P8 | plasma concentration ([3]; 10 mg/kg IV, 0 hr (pre-dose)): BQL | plasma concentration ([3]; 10 mg/kg IV, 0.167 hr, 10 mg/kg, in ng/mL (unit assumed)): 20,900 and 21,000 and 23,400 | plasma concentration [3, 4]: 5,620 and 5,680 and 5,940 | plasma concentration [3, 5]: 1,450 and 1,040 and 1,190 | plasma concentration [3, 6]: 417 and 114 and 136 | plasma concentration ([3]; 10 mg/kg IV, 4 hr, 10 mg/kg): 10.2 and 7.54 ^b and 8.29 ^b | plasma concentration ([3]; 10 mg/kg IV, 6 hr, 10 mg/kg): 2.09 ^b and 1.81 ^b and BQL | plasma concentration ([3]; 10 mg/kg IV, 8 hr): BQL | plasma concentration ([3]; 10 mg/kg IV, 12 hr): BQL | plasma concentration ([3]; 10 mg/kg IV, 24 hr): BQL | plasma concentration ([3]; 10 mg/kg SC, 0 hr (pre-dose)): BQL | plasma concentration ([3]; 10 mg/kg SC, 0.167 hr, 10 mg/kg, in ng/mL (unit assumed)): 16,200 and 13,500 and 13,800 ^a | plasma concentration [3, 7]: 9,030 and 9,010 and 7,190 | plasma concentration [3, 8]: 3,250 and 4,160 and 3,110 | plasma concentration [3, 9]: 609 and 987 and 1,040 | plasma concentration ([3]; 10 mg/kg SC, 4 hr, 10 mg/kg, in ng/mL (unit assumed)): 59.2 and 82.8 and 125 | plasma concentration ([3]; 10 mg/kg SC, 6 hr, 10 mg/kg): 3.77 ^b and 9.84 ^b and 21.6 | plasma concentration ([3]; 10 mg/kg SC, 8 hr, 10 mg/kg): 1.61 ^b and 4.37 ^b and 5.19 ^b | plasma concentration ([3]; 10 mg/kg SC, 12 hr): BQL | plasma concentration ([3]; 10 mg/kg SC, 24 hr): BQL | production of Aβ in retinal cells in the presence of the peptide (in words) (Aβ): reduced | reduction in Aβ40 (Aβ40; rat plasma, 12 hr post dosing): about 35% | reduction in Aβ40 (Aβ40; rat plasma, 24 h post dosing): about 27% | reduction of Aβ40 compared with the other peptides (in words) (Aβ40; rat plasma, SC): more potent than P8 and 8M1D; also recorded: more effectively than P8 and 8M1D | Percent Decrease in Aβ 40 in Rat Plasma (Aβ40; 0 h): 0.00% | Percent Decrease in Aβ 40 in Rat Plasma (Aβ40; 6 h): −26.62% | Percent Decrease in Aβ 40 in Rat Plasma (Aβ40; 12 h): −35.27% | Percent Decrease in Aβ 40 in Rat Plasma (Aβ40; 24 h): −27.36% | efficacy on increasing the dose 5× (in words) (Aß; SC): only a marginal increase in efficacy | maximum efficacious dose (Aß; SC dosing): over 50 mg/kg | reduction in Aß 42 (Aß; SC, at the maximum efficacious dose (just over 50 mg/kg)): 65%

DEEEDEEL-OH [P8, DEEEDEEL, reference compound]
time after dosing at which detectable in CSF ([1]; 10 mg/kg IV and SC): ≤ 2 h | CSF concentration, Mean IV ([1]; 0 hr): 0 | CSF concentration, Mean IV ([1]; 0.5 hr): 42.4 | CSF concentration, Mean IV ([1]; 1 hr): 14.2 | CSF concentration, Mean IV ([1]; 2 hr): 4.89 | CSF concentration, Mean IV ([1]; 4 hr): 0 | CSF concentration, Mean IV ([1]; 8 hr): 0 | CSF concentration, Mean IV ([1]; 12 hr): 0 | CSF concentration, Mean IV ([1]; 24 hr): 0 | CSF concentration, Mean SC ([1]; 0 hr): 0 | CSF concentration, Mean SC ([1]; 0.5 hr): 79.4 | CSF concentration, Mean SC ([1]; 1 hr): 19.3 | CSF concentration, Mean SC ([1]; 2 hr): 23.3 | CSF concentration, Mean SC ([1]; 4 hr): 0 | CSF concentration, Mean SC ([1]; 8 hr): 0 | CSF concentration, Mean SC ([1]; 12 hr): 0 | CSF concentration, Mean SC ([1]; 24 hr): 0 | delivery to the APPTg mouse brain (in words) [2]: in sufficient amounts to reduce Aß in the brain | time after dosing at which detectable in plasma ([3]; 10 mg/kg IV and SC): ≤ 2 h | plasma concentration ([3]; 10 mg/kg IV, 0 hr (pre-dose)): BQL | plasma concentration ([3]; 10 mg/kg IV, 0.167 hr, 10 mg/kg): 9,770 and 12,800 ^a and 11,800 ^a | plasma concentration [3, 4]: 2,340 and 2,080 and 2,710 | plasma concentration [3, 5]: 257 and 219 and 189 | plasma concentration [3, 6]: 26.3 and 22.7 and 18.9 | plasma concentration ([3]; 10 mg/kg IV, 4 hr, 10 mg/kg): 3.23 ^b and 3.18 ^b and 2.89 ^b | plasma concentration ([3]; 10 mg/kg IV, 6 hr, 10 mg/kg): 1.07 ^b and 0.794 ^b | plasma concentration ([3]; 10 mg/kg IV, 8 hr): BQL | plasma concentration ([3]; 10 mg/kg IV, 12 hr): BQL | plasma concentration ([3]; 10 mg/kg IV, 24 hr): BQL | plasma concentration ([3]; 10 mg/kg SC, 0 hr (pre-dose)): BQL | plasma concentration ([3]; 10 mg/kg SC, 0.167 hr, 10 mg/kg): 5,610 and 14,400 ^a and 11,900 ^a | plasma concentration [3, 7]: 3,030 and 7,010 and 7,250 | plasma concentration [3, 8]: 670 and 1,300 and 1,970 | plasma concentration [3, 9]: 105 and 191 and 245 | plasma concentration ([3]; 10 mg/kg SC, 4 hr, 10 mg/kg): 5.44 ^b and 9.41 ^b and 20.7 | plasma concentration ([3]; 10 mg/kg SC, 6 hr, 10 mg/kg): 1.18 ^b and 4.35 ^b and 9.33 ^b | plasma concentration ([3]; 10 mg/kg SC, 8 hr, 10 mg/kg): BQL and 1.32 ^b and 1.51 ^b | plasma concentration ([3]; 10 mg/kg SC, 12 hr, 10 mg/kg): BQL (2×) and 0.900 ^b | plasma concentration ([3]; 10 mg/kg SC, 24 hr): BQL | production of Aβ in retinal cells in the presence of the peptide (in words) (Aβ): reduced | reduction in Aβ40 (Aβ40; rat plasma, 12 hr post dosing): about 22% | reduction in Aβ40 (Aβ40; rat plasma, 24 h post dosing): about 13% | Percent Decrease in Aβ 40 in Rat Plasma (Aβ40; 0 h): 0.00% | Percent Decrease in Aβ 40 in Rat Plasma (Aβ40; 6 h): −18.13% | Percent Decrease in Aβ 40 in Rat Plasma (Aβ40; 12 h): −22.70% | Percent Decrease in Aβ 40 in Rat Plasma (Aβ40; 24 h): −13.22%
